Laboratory results reported in ChEMBL document CHEMBL5512665, “A CARM1 Inhibitor Potently Suppresses Breast Cancer Both In Vitro and In Vivo” (J Med Chem, 2024).
Calls of active or inactive are those of the source. The rule behind the calls is not given here.

How the values were obtained:
[1] = Toxicity in BALB/C mouse implanted with mouse 4T1 cells assessed as change in heart morphology at 25 mg/kg,ip administrated daily for 14 days; assay type: organism-based; settings: in vivo, 336 h, time 14 day
MCF7 = test: Antitumor activity against human MCF7 cells xenografted in BALB/C mouse assessed as upregulation of ISG15 gene expression at 50 mg/kg,ip administrated every other day for 29 days by RT-qPCR analysis; assay type: functional, organism-based; settings: time 29.0 day
[2] = Toxicity in BALB/C mouse xenografted with human MCF7 cells assessed as change in heart morphology at 50 mg/kg,ip administrated every other day for 29 days; assay type: organism-based; settings: in vivo, 696 h, time 29 day
4T1 [3] = test: Potentiation of etoposide induced antitumor activity against mouse 4T1 cells implanted in BALB/C mouse assessed as upregulation of IFNalpha gene expression at 25 mg/kg,ip administrated daily for 12 days in presence of 8 mg/kg etoposide administration by RT-qPCR analysis; assay type: functional, organism-based; settings: time 12.0 day
4T1 [4] = test: Potentiation of etoposide induced antitumor activity against mouse 4T1 cells implanted in BALB/C mouse assessed as reduction in tumor weight at 25 mg/kg,ip administrated daily for 12 days in presence of 8 mg/kg etoposide administration; assay type: functional, organism-based; settings: time 12.0 day
4T1 [5] = test: Antitumor activity against mouse 4T1 cells implanted in BALB/C mouse assessed as upregulation of ISG15 gene expression at 25 mg/kg,ip administrated daily for 14 days by RT-qPCR analysis; assay type: functional, organism-based; settings: time 14.0 day

Cc1ccc(-c2nc(N3CCN(CCN(C)C)CC3)ncc2-c2ccoc2)cc1.Cl.Cl
Activity [1]: Non-Toxic
Activity (MCF7): Active
Activity [2]: Non-Toxic
Activity (4T1 [3]): Active
Activity (4T1 [4]): Active
Activity (4T1 [5]): Active
